PMC8190279, “Spatiotemporal imaging and pharmacokinetics of fluorescent compounds in zebrafish eleuthero-embryos after different routes of administration” (Scientific Reports, 2021)

What was measured:
[1] = Experimental lipophilicity (LogD), shake-flask method with UHPLC; conditions: n-octanol / Danieau's solution, 10 µM compound
Procedure: Briefly, 10 µM of compound was shaken in a mixture of two mobile phases, n-octanol and Danieau’s solution (eleuthero-embryo medium) and analysed with UHPLC.
The lipophilicity of the fluorescent compounds was determined following the EPA guideline OPPTS 830.7550 Partition coefficient (shake flask method)[46] using Danieau’s solution and n-octanol as the two immiscible phases. Analyses were performed using an Agilent Infinity 1290 UHPLC system (Agilent Technologies, Waldbronn, Germany) consisting of an autosampler, quaternary pump and DAD-detector, operated with Open Lab software (version C.01.10, Agilent Technologies). […] All compounds were detected and quantified at 390 nm. For the quantification of the compounds, calibration samples were made in 50:50 ACN:MilliQ water for the compounds analysed in RPLC and 95:5 ACN:MilliQ water for compounds analysed in HILIC. […] The variation (calculated as the relative standard deviation, %RSD) for 3 injections was always below 10% (for all considered concentrations) and R^2 values of the calibration curves were all above 0.998. All calculations concerning the evaluation of the recorded data were made in MS Excel (Microsoft Corporation, Seattle, USA). […]

[2] = tested on: 3 dpf zebrafish eleuthero-embryos; experiment: Whole-body fluorescence quantification and 1-compartment PK modelling; type: in vivo, Danio rerio; conditions: for ke (total elimination rate constant): 1-compartment model fitted to all routes (immersion 10 µM, PC/IP 2 mg/kg, combination), 0-48 h; for Q (passive exchange with the medium) / t1/2 (elimination half-life, ln(2)/ke): 1-compartment model, zebrafish eleuthero-embryo; for Comparison of passive exchange with the medium (Q) among compounds: ranking in words
Description: We then quantified the relative amount of compound present in the zebrafish eleuthero-embryos by assessing the integrated fluorescence intensity of delineated whole-body contours present in the fluorescence images (Figs. 1, 2, 3, 4, 5, 6, 7).
The total measured fluorescence was proportional to total amount of compound present in the animal, as described by Eq. (1). RFUT denotes the sum of fluorescence intensity in the overall image, A denotes the amount of drug in the zebrafish, and FLUOR is a constant denoting the compound-specific fluorescence quantum yield.1 RFUT=FLUOR∗A
Simplifying by substitution of ke=Q+CL/V :3 dA/dt=-ke∗A+QM
Next, data fitting was performed with the following mathematical model:4 At=Dose∗e^-ket+MQ/ke(1-e^-ket) with Dose the injected dose (mg/kg), M the concentration in the medium (mg/L), Q the passive exchange with the medium (L/h) and ke the total elimination rate constant (h^−1). When administering the compound through immersion, the injected dose is 0 mg/kg. When injecting the compound, the concentration in medium is 0. This model was fitted to all available data using non-linear regression in R version 4.0.3.
Residual error plots were used to identify observations with poor fit.
The designed model was optimized by a non-linear least squares modelling, using Gauss–Newton algorithms under the method of iterative fashion, with R version 4.0.3, using stats::nls[50].

[3] = tested on: 3 dpf zebrafish eleuthero-embryos; experiment: Spatiotemporal fluorescence imaging after immersion, microinjection (PC, IP, IY) or combination; type: in vivo, Danio rerio
Procedure: We then determined the spatiotemporal distribution of the fluorescent compounds. The eleuthero-embryos were exposed to the dyes by immersion or microinjection in the pericardial cavity (PC), intraperitoneally (IP) and in the yolk sac (IY) for 48 h starting from 3 dpf on, i.e. after hatching, thus avoiding the presence of the chorion that has been reported as a potential barrier for the absorption of compounds[21],[27].
At specific time periods after treatment, the eleuthero-embryos were immobilized by hypothermia and fluorescent microscope pictures were taken.
3 dpf zebrafish eleuthero-embryos wildtype AB (n = 10 per compound) randomly selected were immersed using 6-well-plates (5 mL per well) of Danieau’s medium with a final DMSO concentration of 0.1% (v/v), containing the compounds at a concentration of 10 µM. Vehicle-treated control eleuthero-embryos were exposed to Danieau’s medium supplemented with 0.1% v/v DMSO.
3 dpf zebrafish eleuthero-embryos wildtype AB (n = 10 per compound) randomly selected were immobilized by cooling to 4 °C and positioned on 1% (w/v) agarose plates at room temperature. All compounds were microinjected using glass needles fitted to a micromanipulator (MM-33) connected to a gas pressure microinjector (Eppendorf Femtojet set - AG 22331 Hamburg). Glass capillaries (W/FIL 1.0MM 4 in TW 100F-4) were pulled (Sutter Instrument CO. Model P-87 Cat N B100-58-15 Filament: FB330B – FB320B) by using program 5 (Heat 829, Pull 158, Vel 100, Time 150). Needles were filled with compounds dissolved in vehicle (DMSO/saline (1:1)). Microinjections were performed into the pericardial cavity (PC)[47], into the yolk sac (IY)[35], or into the peritoneal cavity (IP) at a volume of 1 nL and a dose of 2 mg/kg. For the intraperitoneal microinjection, the eleuthero-embryos were positioned in lateral right recumbence under a dissecting microscope. By using a micromanipulator, the needle was inserted posteriorly and ventrolateral to the swim bladder in the peritoneal cavity. Afterwards the eleuthero-embryos were transferred to 6-well plates. Control eleuthero-embryos were exposed to vehicle only.
3 dpf zebrafish eleuthero-embryos wildtype AB (n = 10 per compound) randomly selected were immobilized and positioned on 1% (w/v) agarose plates. All compounds were microinjected using glass needles, as previously described into the PC cavity. Afterwards, the larvae were selected and transferred to a 6-well-plate, into its corresponding compound at 10 µM.
The thus-treated eleuthero-embryos were kept in the incubator at 28.5 °C (in darkness) and taken out shortly at defined time points (15’, 1 h, 3 h, 6 h, 24 h and 48 h) for image analysis.
Eleuthero-embryos were immobilized by hypothermia, rinsed three times with Danieau’s medium, and positioned latero-lateral (right lateral recumbency) in a drop of agarose (0.1%). To acquire images, a Leica MZ10F fluorescent stereomicroscope with a 4.0 × planapochromatic objective (10447243) was used, equipped with a Digital Color Camera Leica DFC310 FX (Software LAS 4.13). Filter sets were GFP 10446222 in case of compound FAMA, dSRED 10447079 in case of S-CY3A, CY3A and TAMRA, and CY5 10446366 in case of S-CY5.5A and S-CY5A. After manual delineation of the whole body (WB) contours of the zebrafish eleuthero-embryos using MetaMorph (Microscopy Automation & Image Analysis Software V.7.8.00), the fluorescence in the selected area was quantified as integrated fluorescence intensity (RFU) that adds up all fluorescence intensity values of the individual pixels. In case of the combination treatment the same correction factor for exposure time from the camera setting was applied in the case of FAMA and TAMRA, to avoid saturation of the images (Supplementary information. Figure S1)[48]. The selected images shown in the Figs. 1, 2, 3, 4, 5, 6 and 7 were arranged using MS PowerPoint (Microsoft Corporation, Seattle, USA) and the open-source GIMP (version 2.10.24 www.gimp.org 2021) software. […]

| Compound | LogD [1] | ke (total elimination rate constant) [2] [h⁻¹] | Q (passive exchange with the medium) [2] [L/h × 10^−9] | t1/2 (elimination half-life, ln(2)/ke) [2] [h] | Intra-fish distribution after pericardial (PC) microinjection ([3]; PC microinjection 2 mg/kg) | Level and intra-body fluorescence distribution at 48 h, combination (immersion + PC) compared with PC microinjection ([3]; immersion 10 µM + PC 2 mg/kg, 48 h) | Uptake after immersion (fluorescence imaging) ([3]; immersion 10 µM, 0-48 h from 3 dpf) | Additional effect of immersion route on intrabody exposure in combination treatment (RC3h) ([2]; 3 h exposure, immersion 10 µM + PC 2 mg/kg) | Comparison of passive exchange with the medium (Q) among compounds [2] | Level and intra-body fluorescence distribution at 48 h, combination (immersion + PC) compared with PC microinjection ([3]; in vivo) | Intra-fish distribution after pericardial (PC) microinjection ([3]; in vivo) |
| --- | --- | --- | --- | --- | --- | --- | --- | --- | --- | --- | --- |
| C#CCNC(=O)c1ccc(-c2c3ccc(=[N+](C)C)cc-3oc3cc(N(C)C)ccc23)c(C(=O)[O-])c1 (single isomer, unassigned) [TAMRA, Tamra alkyne 5-isomer] | 0.46 | 0.052 | 1.45 | 13.35 | rapidly distributed to the vasculature | altered | gradually taken up over time | – | – | – | – |
| C#CCNC(=O)CCCCCN1C(=CC=CC2=[N+](C)c3ccccc3C2(C)C)C(C)(C)c2ccccc21.[Cl-] [CY3A, Cyanine3 alkyne] | 1.73 | 0.049 | 8.37 | 13.92 | – | – | – | to a limited degree | taken up the fastest | altered | – |
| C#CCNC(=O)c1ccc2c(c1)C(=O)OC21c2ccc(O)cc2Oc2cc(O)ccc21 [FAMA, FAM alkyne, 5-isomer] | – | – | 1.71 | 57.41 | – | – | – | – | – | – | rapidly distributed to the vasculature |
| C#CCNC(=O)CCCCCN1/C(=C/C=C/C=C/C2=[N+](C)c3ccc4c(S(=O)(=O)[O-])cc(S(=O)(=O)[O-])cc4c3C2(C)C)C(C)(C)c2c1ccc1c(S(=O)(=O)[O-])cc(S(=O)(=O)[O-])cc21.[K+].[K+].[K+] [S-CY5.5A, Sulfo-cyanine 5.5 alkyne] | – | 0.023 | 0.34 | 30.26 | – | – | – | – | slowest one to be exchanged | – | rapidly distributed to the vasculature |
| Sulfo-cyanine 3 alkyne [S-CY3A] | – | 0.012 | 0.23 | 57.40 | – | – | – | – | – | – | rapidly distributed to the vasculature |
| Sulfo-cyanine 5 alkyne [S-CY5A] | – | 0.014 | 1.61 | 50.41 | – | – | – | – | – | altered | rapidly distributed to the vasculature |
